Assay results: ChEMBL document CHEMBL1151757, “Synthesis, radiosynthesis, and biological evaluation of fluorine-18-labeled 2beta-carbo(fluoroalkoxy)-3beta-(3'-((Z)-2-haloethenyl)phenyl)nortropanes: candidate radioligands for in vivo imaging of the serotonin transporter with positron emission tomography” (J Med Chem, 2008)

system: Thalamus; assay: Drug uptake in anesthetized cynomolgus monkey brain thalamus after 27.5 mins postinjection; type: ADME, organism-based, Macaca fascicularis; set-up: unit not given here; settings: in vivo

SMILES | Drug uptake
O=C(OCC[18F])C1C2CCC(CC1c1cccc(/C=C\Br)c1)N2 (centres undefined) | 3.94

system: Putamen; assay: Drug uptake in anesthetized cynomolgus monkey brain putamen after 75 mins postinjection; type: ADME, organism-based, Macaca fascicularis; set-up: unit not given here; settings: in vivo, 1.25 h

SMILES | Drug uptake
O=C(OCC[18F])C1C2CCC(CC1c1cccc(/C=C\Br)c1)N2 (centres undefined) | 5

system: not listed separately; assay: Drug uptake in anesthetized cynomolgus monkey brain occipital lobe after 145 mins postinjection; type: ADME, organism-based, Macaca fascicularis; settings: in vivo

SMILES | Drug uptake
O=C(OCC[18F])C1C2CCC(CC1c1cccc(/C=C\Br)c1)N2 (centres undefined) | 2.74

system: Midbrain; assay: Drug uptake in anesthetized cynomolgus monkey brain midbrain after 115 mins postinjection; type: ADME, organism-based, Macaca fascicularis; set-up: unit not given here; settings: in vivo

SMILES | Drug uptake
O=C(OCC[18F])C1C2CCC(CC1c1cccc(/C=C\Br)c1)N2 (centres undefined) | 4.78

system: Medulla; assay: Drug uptake in anesthetized cynomolgus monkey brain medulla after 135 mins postinjection; type: ADME, organism-based, Macaca fascicularis; settings: in vivo, 2.25 h

SMILES | Drug uptake
O=C(OCC[18F])C1C2CCC(CC1c1cccc(/C=C\Br)c1)N2 (centres undefined) | 4.21

system: not listed separately; assay: Ratio of drug uptake in caudate to cerebellum in anesthetized cynomolgus monkey after 9.5 mins postinjection; type: ADME, organism-based, Macaca fascicularis; settings: in vivo

SMILES | Ratio
O=C(OCC[18F])C1C2CCC(CC1c1cccc(/C=C\Br)c1)N2 (centres undefined) | 0.7

system: Pons; assay: Drug uptake in anesthetized cynomolgus monkey brain pons after 15.5 mins postinjection; type: ADME, organism-based, Macaca fascicularis; settings: in vivo

SMILES | Drug uptake
O=C(OCC[18F])C1C2CCC(CC1c1cccc(/C=C\Br)c1)N2 (centres undefined) | 3.73

system: not listed separately; assay: Drug uptake in anesthetized cynomolgus monkey brain frontal lobe after 18.5 mins postinjection; type: ADME, organism-based, Macaca fascicularis; settings: in vivo

SMILES | Drug uptake
O=C(OCC[18F])C1C2CCC(CC1c1cccc(/C=C\Br)c1)N2 (centres undefined) | 2.39

system: Medulla; assay: Drug uptake in anesthetized cynomolgus monkey brain medulla after 155 mins postinjection; type: ADME, organism-based, Macaca fascicularis; settings: in vivo

SMILES | Drug uptake
O=C(OCC[18F])C1C2CCC(CC1c1cccc(/C=C\Br)c1)N2 (centres undefined) | 3.83

system: Caudate; assay: Drug uptake in anesthetized cynomolgus monkey brain caudate after 35 mins postinjection; type: ADME, organism-based, Macaca fascicularis, Caudate nucleus; settings: in vivo

SMILES | Drug uptake
O=C(OCC[18F])C1C2CCC(CC1c1cccc(/C=C\Br)c1)N2 (centres undefined) | 3.56

system: not listed separately; assay: Ratio of drug uptake in midbrain to cerebellum in anesthetized cynomolgus monkey after 215 mins postinjection; type: ADME, organism-based, Macaca fascicularis; settings: in vivo

SMILES | Ratio
O=C(OCC[18F])C1C2CCC(CC1c1cccc(/C=C\Br)c1)N2 (centres undefined) | 2.1

system: not listed separately; assay: Ratio of drug uptake in medulla to cerebellum in anesthetized cynomolgus monkey after 0.5 mins postinjection; type: ADME, organism-based, Macaca fascicularis; settings: in vivo

SMILES | Ratio
O=C(OCC[18F])C1C2CCC(CC1c1cccc(/C=C\Br)c1)N2 (centres undefined) | 0.6

system: Putamen; assay: Drug uptake in anesthetized cynomolgus monkey brain putamen after 45 mins postinjection; type: ADME, organism-based, Macaca fascicularis; set-up: unit not given here; settings: in vivo, 0.75 h

SMILES | Drug uptake
O=C(OCC[18F])C1C2CCC(CC1c1cccc(/C=C\Br)c1)N2 (centres undefined) | 4.94

system: Midbrain; assay: Drug uptake in anesthetized cynomolgus monkey brain midbrain after 165 mins postinjection; type: ADME, organism-based, Macaca fascicularis; settings: in vivo, 2.75 h

SMILES | Drug uptake
O=C(OCC[18F])C1C2CCC(CC1c1cccc(/C=C\Br)c1)N2 (centres undefined) | 4.28

system: not listed separately; assay: Drug uptake in anesthetized cynomolgus monkey brain occipital lobe after 135 mins postinjection; type: ADME, organism-based, Macaca fascicularis; settings: in vivo, 2.25 h

SMILES | Drug uptake
O=C(OCC[18F])C1C2CCC(CC1c1cccc(/C=C\Br)c1)N2 (centres undefined) | 2.78

system: not listed separately; assay: Ratio of drug uptake in midbrain to cerebellum in anesthetized cynomolgus monkey after 9.5 mins postinjection; type: ADME, organism-based, Macaca fascicularis; settings: in vivo

SMILES | Ratio
O=C(OCC[18F])C1C2CCC(CC1c1cccc(/C=C\Br)c1)N2 (centres undefined) | 1.1

system: Caudate; assay: Drug uptake in anesthetized cynomolgus monkey brain caudate after 175 mins postinjection; type: ADME, organism-based, Macaca fascicularis, Caudate nucleus; settings: in vivo

SMILES | Drug uptake
O=C(OCC[18F])C1C2CCC(CC1c1cccc(/C=C\Br)c1)N2 (centres undefined) | 3.29

system: Caudate; assay: Drug uptake in anesthetized cynomolgus monkey brain caudate after 3.5 mins postinjection; type: ADME, organism-based, Macaca fascicularis, Caudate nucleus; settings: in vivo

SMILES | Drug uptake
O=C(OCC[18F])C1C2CCC(CC1c1cccc(/C=C\Br)c1)N2 (centres undefined) | 0.63

system: not listed separately; assay: Drug uptake in anesthetized cynomolgus monkey brain cerebellum after 205 mins postinjection; type: ADME, organism-based, Macaca fascicularis; settings: in vivo

SMILES | Drug uptake
O=C(OCC[18F])C1C2CCC(CC1c1cccc(/C=C\Br)c1)N2 (centres undefined) | 1.8

system: not listed separately; assay: Drug uptake in anesthetized cynomolgus monkey brain frontal lobe after 6.5 mins postinjection; type: ADME, organism-based, Macaca fascicularis; settings: in vivo

SMILES | Drug uptake
O=C(OCC[18F])C1C2CCC(CC1c1cccc(/C=C\Br)c1)N2 (centres undefined) | 1.75

system: not listed separately; assay: Drug uptake in anesthetized cynomolgus monkey brain occipital lobe after 115 mins postinjection; type: ADME, organism-based, Macaca fascicularis; settings: in vivo

SMILES | Drug uptake
O=C(OCC[18F])C1C2CCC(CC1c1cccc(/C=C\Br)c1)N2 (centres undefined) | 3.02

system: Medulla; assay: Drug uptake in anesthetized cynomolgus monkey brain medulla after 205 mins postinjection; type: ADME, organism-based, Macaca fascicularis; settings: in vivo

SMILES | Drug uptake
O=C(OCC[18F])C1C2CCC(CC1c1cccc(/C=C\Br)c1)N2 (centres undefined) | 3.14

system: Pons; assay: Drug uptake in anesthetized cynomolgus monkey brain pons after 175 mins postinjection; type: ADME, organism-based, Macaca fascicularis; settings: in vivo

SMILES | Drug uptake
O=C(OCC[18F])C1C2CCC(CC1c1cccc(/C=C\Br)c1)N2 (centres undefined) | 3.72

system: Medulla; assay: Drug uptake in anesthetized cynomolgus monkey brain medulla after 105 mins postinjection; type: ADME, organism-based, Macaca fascicularis; settings: in vivo, 1.75 h

SMILES | Drug uptake
O=C(OCC[18F])C1C2CCC(CC1c1cccc(/C=C\Br)c1)N2 (centres undefined) | 4.31

system: Thalamus; assay: Drug uptake in anesthetized cynomolgus monkey brain thalamus after 165 mins postinjection; type: ADME, organism-based, Macaca fascicularis; set-up: unit not given here; settings: in vivo, 2.75 h

SMILES | Drug uptake
O=C(OCC[18F])C1C2CCC(CC1c1cccc(/C=C\Br)c1)N2 (centres undefined) | 3.64

system: Pons; assay: Drug uptake in anesthetized cynomolgus monkey brain pons after 9.5 mins postinjection; type: ADME, organism-based, Macaca fascicularis; settings: in vivo

SMILES | Drug uptake
O=C(OCC[18F])C1C2CCC(CC1c1cccc(/C=C\Br)c1)N2 (centres undefined) | 3.15

system: not listed separately; assay: Drug uptake in anesthetized cynomolgus monkey brain cerebellum after 6.5 mins postinjection; type: ADME, organism-based, Macaca fascicularis; settings: in vivo

SMILES | Drug uptake
O=C(OCC[18F])C1C2CCC(CC1c1cccc(/C=C\Br)c1)N2 (centres undefined) | 2.75

system: not listed separately; assay: Drug uptake in anesthetized cynomolgus monkey brain frontal lobe after 145 mins postinjection; type: ADME, organism-based, Macaca fascicularis; settings: in vivo

SMILES | Drug uptake
O=C(OCC[18F])C1C2CCC(CC1c1cccc(/C=C\Br)c1)N2 (centres undefined) | 2.52

system: not listed separately; assay: Drug uptake in anesthetized cynomolgus monkey brain frontal lobe after 165 mins postinjection; type: ADME, organism-based, Macaca fascicularis; settings: in vivo, 2.75 h

SMILES | Drug uptake
O=C(OCC[18F])C1C2CCC(CC1c1cccc(/C=C\Br)c1)N2 (centres undefined) | 2.38

system: not listed separately; assay: Ratio of drug uptake in occipital lobe to cerebellum in anesthetized cynomolgus monkey after 125 mins postinjection; type: ADME, organism-based, Macaca fascicularis; settings: in vivo

SMILES | Ratio
O=C(OCC[18F])C1C2CCC(CC1c1cccc(/C=C\Br)c1)N2 (centres undefined) | 1.1

system: not listed separately; assay: Drug uptake in anesthetized cynomolgus monkey brain cerebellum after 1.5 mins postinjection; type: ADME, organism-based, Macaca fascicularis; settings: in vivo, 0.025 h

SMILES | Drug uptake
O=C(OCC[18F])C1C2CCC(CC1c1cccc(/C=C\Br)c1)N2 (centres undefined) | 0.06

system: Medulla; assay: Drug uptake in anesthetized cynomolgus monkey brain medulla after 18.5 mins postinjection; type: ADME, organism-based, Macaca fascicularis; settings: in vivo

SMILES | Drug uptake
O=C(OCC[18F])C1C2CCC(CC1c1cccc(/C=C\Br)c1)N2 (centres undefined) | 4.39

system: not listed separately; assay: Ratio of drug uptake in frontal lobe to cerebellum in anesthetized cynomolgus monkey after 195 mins postinjection; type: ADME, organism-based, Macaca fascicularis; settings: in vivo, 3.25 h

SMILES | Ratio
O=C(OCC[18F])C1C2CCC(CC1c1cccc(/C=C\Br)c1)N2 (centres undefined) | 1.2

system: not listed separately; assay: Drug uptake in anesthetized cynomolgus monkey brain occipital lobe after 9.5 mins postinjection; type: ADME, organism-based, Macaca fascicularis; settings: in vivo

SMILES | Drug uptake
O=C(OCC[18F])C1C2CCC(CC1c1cccc(/C=C\Br)c1)N2 (centres undefined) | 2.66
